Target: GST-Xa-hAAK1 (Homo sapiens (Human), UniProt Q2M2I8)
Test: AAK1 Kinase Assay;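 further: each compound tested across an eleven-point concentration series, with IC50 obtained through non-linear regression fitting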
Assay type: biochemical
Conditions: bacterially expressed GST-Xa-hAAK1 3.5 nM; ATP 22 μM; peptide substrate 1.5 μM; 3 hours at room temperature; Caliper LabChip 3000

Sequence of GST-Xa-hAAK1 (Q2M2I8 whole entry): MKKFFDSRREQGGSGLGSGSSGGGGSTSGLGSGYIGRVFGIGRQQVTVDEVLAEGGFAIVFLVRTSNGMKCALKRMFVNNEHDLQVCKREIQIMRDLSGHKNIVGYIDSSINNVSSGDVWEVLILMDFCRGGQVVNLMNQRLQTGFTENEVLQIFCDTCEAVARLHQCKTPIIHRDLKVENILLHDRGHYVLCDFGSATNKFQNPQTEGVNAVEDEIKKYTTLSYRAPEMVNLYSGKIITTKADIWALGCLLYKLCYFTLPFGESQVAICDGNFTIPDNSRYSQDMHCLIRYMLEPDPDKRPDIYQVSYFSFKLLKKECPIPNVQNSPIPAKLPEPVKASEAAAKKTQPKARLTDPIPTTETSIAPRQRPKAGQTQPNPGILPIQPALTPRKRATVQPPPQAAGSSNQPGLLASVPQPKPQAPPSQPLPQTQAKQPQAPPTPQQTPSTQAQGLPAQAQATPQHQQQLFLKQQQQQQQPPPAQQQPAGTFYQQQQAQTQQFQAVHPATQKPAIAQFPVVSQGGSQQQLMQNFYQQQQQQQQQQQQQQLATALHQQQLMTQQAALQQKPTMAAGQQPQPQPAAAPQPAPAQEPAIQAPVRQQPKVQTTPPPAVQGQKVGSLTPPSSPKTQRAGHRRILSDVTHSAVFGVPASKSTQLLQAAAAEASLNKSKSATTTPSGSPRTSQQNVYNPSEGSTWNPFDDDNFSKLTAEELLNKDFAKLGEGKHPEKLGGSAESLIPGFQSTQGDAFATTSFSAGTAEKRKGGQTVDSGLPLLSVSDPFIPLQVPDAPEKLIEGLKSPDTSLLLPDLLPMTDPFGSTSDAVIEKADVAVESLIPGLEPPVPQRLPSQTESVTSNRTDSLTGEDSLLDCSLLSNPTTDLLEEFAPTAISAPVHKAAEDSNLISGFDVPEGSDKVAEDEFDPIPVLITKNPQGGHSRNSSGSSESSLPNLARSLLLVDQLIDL

| Structure (SMILES) | IC50 [nM] |
| --- | --- |
| CC(=O)Nc1cc(-c2ccc(OC[C@@H](N)CC(C)C)c(OC(F)(F)F)c2)ccn1 [Example 6, (S)—N-(4-(4-((2-amino-4-methylpentyl)oxy)-3-(trifluoromethoxy)phenyl)pyridin-2-yl)acetamide] | 0.47 |
| Cc1cc(-c2ccnc3cc(F)ccc23)ncc1OC[C@@](C)(N)CC(C)C [Example 232, (S)-1-((6-(7-fluoroquinolin-4-yl)-4-methylpyridin-3-yl)oxy)-2,4-dimethylpentan-2-amine] | 0.41 |
| CC(C)C[C@](C)(N)COc1ccc(-c2ccnc3ccc(F)cc23)nc1C(F)F [Example 127, (S)-1-((2-(difluoromethyl)-6-(6-fluoroquinolin-4-yl)pyridin-3-yl)oxy)-2,4-dimethylpentan-2-amine] | 6.2 |
| CC(=O)Nc1cc(-c2ccc(OC[C@@](C)(N)CC(C)C)c(C(F)(F)F)c2)ccn1 [Example 19, (S)—N-(4-(4-((2-amino-2,4-dimethylpentyl)oxy)-3-(trifluoromethyl)phenyl)pyridin-2-yl)acetamide] | 0.36 |
| CC(C)C[C@](C)(N)COc1ncc(-c2ccnc3ccc(F)cc23)cc1Cl [Example 191, (S)-1-((3-chloro-5-(6-fluoroquinolin-4-yl)pyridin-2-yl)oxy)-2,4-dimethylpentan-2-amine] | 0.99 |
| Cc1ccc2c(-c3ccc(OC[C@@](C)(N)CC(C)C)c(C#N)c3)ccnc2c1 [Example 102, (S)-2-((2-amino-2,4-dimethylpentyl)oxy)-5-(7-methylquinolin-4-yl)benzonitrile] | 1.3 |
| COC(=O)Nc1cc(-c2cc(C(F)(F)F)c(OC[C@@](C)(N)CC(C)C)cn2)ccn1 [Example 146, (S)-methyl (5-((2-amino-2,4-dimethylpentyl)oxy)-4-(trifluoromethyl)-[2,4′-bipyridin]-2′-yl)carbamate] | 0.19 |
| CC(C)C[C@](C)(N)COc1ncc(-c2ccnc3ccccc23)cc1F [Example 98, (S)-1-((3-fluoro-5-(quinolin-4-yl)pyridin-2-yl)oxy)-2,4-dimethylpentan-2-amine] | 10 |
| Cc1nccc(-c2ccc(OC[C@@](C)(N)CC(C)C)c(C(F)F)n2)n1 [Example 139, (S)-1-((2-(difluoromethyl)-6-(2-methylpyrimidin-4-yl)pyridin-3-yl)oxy)-2,4-dimethylpentan-2-amine] | 0.77 |
| Cc1cc(-c2ccnc3ccc(Cl)cc23)ncc1OC[C@@](C)(N)CC(C)C [Example 229, (S)-1-((6-(6-chloroquinolin-4-yl)-4-methylpyridin-3-yl)oxy)-2,4-dimethylpentan-2-amine] | 1 |
| CC(C)C[C@](C)(N)COc1ccc(-c2ccnc3ccccc23)nc1C(F)F [Example 118, (S)-1-((2-(difluoromethyl)-6-(quinolin-4-yl)pyridin-3-yl)oxy)-2,4-dimethylpentan-2-amine] | 0.85 |
| Cc1cc(-c2ccc(OC[C@@](C)(N)CC(C)C)c(C)n2)ccn1 [Example 65, (S)-1-((2′,6-dimethyl-[2,4′-bipyridin]-5-yl)oxy)-2,4-dimethylpentan-2-amine] | 42 |
| COC(=O)Nc1cc(-c2ccc(OC[C@@](C)(N)CC(C)C)c(C#N)c2)c(F)cn1 [Example 106, (S)-methyl (4-(4-((2-amino-2,4-dimethylpentyl)oxy)-3-cyanophenyl)-5-fluoropyridin-2-yl)carbamate] | 0.62 |
| Cc1cc(-c2cc(C(F)(F)F)c(OC[C@@](C)(N)CC(C)C)cn2)ccn1 [Example 144, (S)-2,4-dimethyl-1-((2′-methyl-4-(trifluoromethyl)-[2,4′-bipyridin]-5-yl)oxy)pentan-2-amine] | 1.3 |
| COC(=O)Nc1cc(-c2cc(C)c(OC[C@@](C)(N)CC(C)C)cn2)ccn1 [Example 68, (S)-methyl (5-((2-amino-2,4-dimethylpentyl)oxy)-4-methyl-[2,4′-bipyridin]-2′-yl)carbamate] | 2.6 |
| Cc1cc(-c2ccc(OC[C@@](C)(N)CC(C)C)c(F)c2)ccn1 [Example 91, (S)-1-(2-fluoro-4-(2-methylpyridin-4-yl)phenoxy)-2,4-dimethylpentan-2-amine] | 12.1 |
| CC(C)C[C@@](C)(N)COc1ncc(-c2ccnc3ccccc23)cc1C(F)F [Example 246, (R)-1-((3-(difluoromethyl)-5-(quinolin-4-yl)pyridin-2-yl)oxy)-2,4-dimethylpentan-2-amine] | 26 |
| CC(C)C[C@](C)(N)COc1ccc(-c2ccnc3cc(F)ccc23)nc1C(F)F [Example 128, (S)-1-((2-(difluoromethyl)-6-(7-fluoroquinolin-4-yl)pyridin-3-yl)oxy)-2,4-dimethylpentan-2-amine] | 3.5 |
| COC(=O)Nc1nccc(-c2ccc(OC[C@@](C)(N)CC(C)C)c(C)n2)c1F [Example 157, (S)-methyl (5-((2-amino-2,4-dimethylpentyl)oxy)-3′-fluoro-6-methyl-[2,4′-bipyridin]-2′-yl)carbamate] | 19 |
| Cc1cc(-c2ccc(OC[C@@H](N)CC(C)C)c(C#N)c2)ccn1 [Example 15, (S)-2-((2-amino-4-methylpentyl)oxy)-5-(2-methylpyridin-4-yl)benzonitrile] | 0.81 |

| Structure (SMILES) | IC50 [nM] |
| --- | --- |
| CC(C)C[C@](C)(N)COc1ccc(C2=CCOCC2)cc1C(F)(F)F [Example 215, (S)-1-(4-(3,6-dihydro-2H-pyran-4-yl)-2-(trifluoromethyl)phenoxy)-2,4-dimethylpentan-2-amine] | 197 |
| CC(C)C[C@](C)(N)COc1cnc(-c2ccnc3cc(C(F)(F)F)ccc23)cc1Cl [Example 242, (S)-1-((4-chloro-6-(7-(trifluoromethyl)quinolin-4-yl)pyridin-3-yl)oxy)-2,4-dimethylpentan-2-amine] | 1.9 |
| CC(C)C[C@](C)(N)COc1ccc(-c2ccnc3ccncc23)cc1C#N [Example 86, (S)-2-((2-amino-2,4-dimethylpentyl)oxy)-5-(1,6-naphthyridin-4-yl)benzonitrile] | 1.2 |
| COc1cc(-c2ccnc3ccccc23)cnc1OC[C@@](C)(N)CC(C)C [Example 79, (S)-1-((3-methoxy-5-(quinolin-4-yl)pyridin-2-yl)oxy)-2,4-dimethylpentan-2-amine] | 16 |
| CC(C)C[C@H](N)COc1ccc(-c2ccnc(N)c2)cc1C#N [Example 4, (S)-2-((2-amino-4-methylpentyl)oxy)-5-(2-aminopyridin-4-yl)benzonitrile] | 2.8 |
| Cc1cc(-c2cc(C)c(OC[C@@](C)(N)CC(C)C)c(C)n2)ccn1 [Example 212, (S)-2,4-dimethyl-1-((2′,4,6-trimethyl-[2,4′-bipyridin]-5-yl)oxy)pentan-2-amine] | 1020 |
| Cc1cc(-c2ccnc3cc(C#N)ccc23)cnc1OC[C@@](C)(N)CC(C)C [Example 96, (S)-4-(6-((2-amino-2,4-dimethylpentyl)oxy)-5-methylpyridin-3-yl)quinoline-7-carbonitrile] | 3 |
| CC(C)C[C@](C)(N)COc1ccc(-c2ccnc3ccccc23)nc1Cl [Example 83, (S)-1-((2-chloro-6-(quinolin-4-yl)pyridin-3-yl)oxy)-2,4-dimethylpentan-2-amine] | 1.8 |
| CC(C)C[C@](C)(N)COc1cnc(-c2ccnc3ccccc23)cc1C(F)F [Example 121, (S)-1-((4-(difluoromethyl)-6-(quinolin-4-yl)pyridin-3-yl)oxy)-2,4-dimethylpentan-2-amine] | 0.3 |
| Cc1cc(-c2cc(C)c(OC[C@@](C)(N)CC(C)C)cn2)ccn1 [Example 228, (S)-1-((2′,4-dimethyl-[2,4′-bipyridin]-5-yl)oxy)-2,4-dimethylpentan-2-amine] | 22 |
| CC(C)C[C@](C)(N)COc1ccc(-c2ccncc2F)cc1C(F)(F)F [Example 47, (S)-1-(4-(3-fluoropyridin-4-yl)-2-(trifluoromethyl)phenoxy)-2,4-dimethylpentan-2-amine] | 0.77 |
| Cc1nc(-c2ccnc3ccc(F)cc23)ccc1OC[C@@](C)(N)CC(C)C [Example 138, (S)-1-((6-(6-fluoroquinolin-4-yl)-2-methylpyridin-3-yl)oxy)-2,4-dimethylpentan-2-amine] | 35 |
| CC(=O)Nc1cc(-c2ccc(OC[C@@](C)(N)CC(C)C)c(F)c2)ccn1 [Example 27, (S)—N-(4-(4-((2-amino-2,4-dimethylpentyl)oxy)-3-fluorophenyl)pyridin-2-yl)acetamide] | 1 |
| Cc1cc(-c2ccc(OC[C@@](C)(N)CC(C)C)c(C)c2)ccn1 [Example 90, (S)-2,4-dimethyl-1-(2-methyl-4-(2-methylpyridin-4-yl)phenoxy)pentan-2-amine] | 2.6 |
| COC(=O)Nc1cc(-c2ccc(OC[C@@](C)(N)CC(C)C)c(OC(F)(F)F)c2)ccn1 [Example 26, (S)-methyl (4-(4-((2-amino-2,4-dimethylpentyl)oxy)-3-(trifluoromethoxy)phenyl)pyridin-2-yl)carbamate] | 0.69 |
| COC(=O)Nc1cc(-c2ccc(OCC(C)(N)CC(C)C)cn2)ccn1 (stereo not shown) [Example 63, methyl (5-((2-amino-2,4-dimethylpentyl)oxy)-[2,4′-bipyridin]-2′-yl)carbamate] | 24 |
| CC(=O)Nc1cc(-c2ccc(OC[C@@](C)(N)CC(C)C)c(C(F)(F)F)c2)c(CO)cn1 [Example 34, (S)—N-(4-(4-((2-amino-2,4-dimethylpentyl)oxy)-3-(trifluoromethyl)phenyl)-5-(hydroxymethyl)pyridin-2-yl)acetamide] | 15 |
| COC(=O)Nc1cc(-c2cc(C)c(OC[C@@](C)(N)CC(C)C)c(C)n2)ccn1 [Example 213, (S)-methyl (5-((2-amino-2,4-dimethylpentyl)oxy)-4,6-dimethyl-[2,4′-bipyridin]-2′-yl)carbamate] | 22 |
| Cc1nccc(-c2ccc(OC[C@@](C)(N)CC(C)C)c(C(F)F)n2)c1F [Example 160, (S)-1-((6-(difluoromethyl)-3′-fluoro-2′-methyl-[2,4′-bipyridin]-5-yl)oxy)-2,4-dimethylpentan-2-amine] | 0.8 |
| COC(=O)Nc1cc(-c2cnc(OC[C@@](C)(N)CC(C)C)c(C(F)F)c2)ccn1 [Example 196, (S)-methyl (6-((2-amino-2,4-dimethylpentyl)oxy)-5-(difluoromethyl)-[3,4′-bipyridin]-2′-yl)carbamate] | 0.2 |
